Measured values reported in patent US6660910B1, “Selection marker” (Syngenta Mogen B.V., priority 1997, dated 2003).

Assays:
Assay type in all cases: cell-based
[1] = system: root segments of Arabidopsis thaliana cv. C24; assay: Arabidopsis root transformation with selection on cyanamide or kanamycin
Protocol: Described below is the method used for transformation of root segments of Arabidopsis thaliana cv. C24 using Agrobacterium tumefaciens. The binary vectors for this transformation method are identical to those described above.
Six mg of Arabidopsis seeds were germinated in a flask containing liquid Germination Medium (GM) under 16 h light period (1700 lux) at 24° C. and a 8 h dark period at 21° C. at 80 rpm. (The contents of various media can be found in Table 4). Roots of 9 days old seedlings were isolated in a sterile petridish and collected in a drop of Germination Medium (GM). Roots were cut in segments of approximately 3-5 mm and approximately 100 explants were spread evenly on a nylon membrane (O 8 cm) which was placed on plates containing Callus Inducing Medium (CIM). The plates were incubated 3 days under the same conditions as described above.
The Agrobacterium strain used in this study harbored a rifampicin selection marker in a C 58 chromosomal background. The construction of the helper strain MOG101 is described by Hood et al. (1993).
Agrobacteria were grown overnight in LB medium with antibiotics (rifampicin 20 mg/l, kanamycin 100 mg/l). The overnight culture was diluted 1:10 in LB without antibiotics and grown for approximately 3 hours. Bacterial suspensions were centrifuged at 1600×g for 15 minutes at room temperature. Bacteria were resuspended in GM and adjusted to OD600=0.1 and used for cocultivation.
The membrane containing approximately 100 explants was incubated for 2 minutes with the Agrobacterium suspension and dried on sterile filter paper to remove excess of bacteria. The membrane with explants are cultured for 48 h on CIM plates. After rinsing the membrane and explants with liquid GM these were incubated on Shoot Induction Medium (SIM) plates containing several concentrations of cyanamide or kanamycin. After 5 days the membrane with the explants was transferred to the same medium (SIM) for subculture. The second subculture was after 2 weeks. Approximately four weeks after cocultivation 60 shoots per cyanamide concentration were excised and placed on plates with Shoot Elongation Medium (SEM) containing 30 mg/l cyanamide. Shoots which were able to root are tested on their transgenic character by testing leaflets and flowers for expression of the gus gene using a histochemical GUS assay.
Three experiments were performed. Shoots obtained from Exp. 98-8 and 98-11 were transferred to rooting medium (SEM) containing 30 mg/litre cyanamide. Shoots obtained from Exp. 98-13 were transferred to rooting medium containing the same concentration as the selection medium (SIM), for results see Table 4a. The shoots obtained from the kanamycin selection (50 mg/litre) were transferred to rooting medium containing 25 mg/litre Kanamycin.

[2] = system: root segments of Arabidopsis thaliana cv. C24; assay: as above; details: pMOG 1156; treatment kanamycin 50 mg/litre; column headed same conc. as treatment in rooting medium
[3] = system: callus derived from scutellum of mature embryos of Oryza sativa cv. Taipei 309; assay: Rice callus transformation (Agrobacterium) with cyanamide selection; details: for Calli able to regenerate: 15 mg/l cyanamide
Protocol: Described below is the method used for transformation of callus derived from scutellum of mature embryos of Oryza sativa cv. Taipei 309 using Agrobacterium tumefaciens strain LBA1119-pMOG1295 (harboring the cah-gene) and strain LBA1119-pMOG1253 (control). Sterile dehusked rice seeds were germinated on plates containing Callus Induction Medium (CIM) in the dark at 28° C. (The contents of various media can be found in Table 5). After 3 weeks embryogenic callus derived from the scutellum is isolated and subcultured on the same medium under the same conditions. After 2-3 weeks embryogenic calli were cut in segments of approximately 2-3 mm and cultured plates containing CIM for 4 days. The Agrobacterium strains used in this study harbored a rifampicin selection marker in a C 58 chromosomal background. The construction of the helper strain EHA105 is described by Hood et al. (1993). Agrobacteria were grown for 4 days on plates containing AB medium with antibiotics (rifampicin 20 mg/l, kanamycin 100 mg/l ). Agrobacteria were collected in LIM and the OD600 was adjusted till 1.0-1.5. This suspension was used for cocultivation. Calli were incubated for 10 minutes with the Agrobacterium suspension and dried on sterile filter paper to remove excess of bacteria. Calli were cultured for 48 h on Coculture Medium (COM) plates at 25° C. in the dark. 50 pMOG1295 calli and 20 pMOG1253 calli were cultured per concentration of cyanamid. The following concentrations of cyanamide were used: 0, 15, 30, 60, 100, 150, 200, 300 and 500 mg/l. Hygromycin was applied in a concentration of 50 mg/l. Calli were incubated on First Selection Medium (FSM) plates containing several concentrations of cyanamide or hygromycin at 28° C. in the dark. After 3 weeks the calli were transferred to Embryo Induction Medium I (EIM I) containing the same concentration of cyanamide or hygromycin . After another 3 weeks the calli were subcultured on Embryo Induction Medium II (EIM II) containing the same concentration of cyanamide or an increased concentration of hygromycin (75 mg/l). Calli were transferred to Shoot Induction Medium (SIM) containing the same concentration of cyanamide as during FSM, EIM I, EIM II and were cultured under 12 hours light period (2600 LUX) and 12 hours dark at 28 ° C. Approximately 3 weeks after transferring calli to SIM, shoots were regenerating and excised and placed in jars containing Pre-Greenhouse Medium (PGM). […] At 15 mg/l cyanamide the regeneration frequency of callus from both constructs was the same (pMOG1253 7 out of 16 calli were able to regenerate, pMOG1295 17 out of 44).

[4] = pMOG 1156, Experiment 98-8, selection kanamycin 50 mg/litre, rooting medium 25 mg/litre Kanamycin
[5] = pMOG 1156, Experiment 98-11, selection kanamycin 50 mg/litre, rooting medium 25 mg/litre Kanamycin
[6] = pMOG 1156, Experiment 98-13, selection kanamycin 50 mg/litre, rooting medium 25 mg/litre Kanamycin
[7] = pMOG 1156, Experiment 98-8, selection cyanamide 20 mg/litre, rooting medium 30 mg/litre cyanamide
[8] = pMOG 1156, Experiment 98-8, selection cyanamide 30 mg/litre, rooting medium 30 mg/litre cyanamide
[9] = pMOG 1156, Experiment 98-8, selection cyanamide 40 mg/litre, rooting medium 30 mg/litre cyanamide
[10] = pMOG 1156, Experiment 98-8, selection cyanamide 60 mg/litre, rooting medium 30 mg/litre cyanamide
[11] = pMOG 1156, Experiment 98-8, selection cyanamide 80 mg/litre, rooting medium 30 mg/litre cyanamide
[12] = pMOG 1156, Experiment 98-11, selection cyanamide 20 mg/litre, rooting medium 30 mg/litre cyanamide
[13] = pMOG 1156, Experiment 98-11, selection cyanamide 30 mg/litre, rooting medium 30 mg/litre cyanamide
[14] = pMOG 1156, Experiment 98-11, selection cyanamide 40 mg/litre, rooting medium 30 mg/litre cyanamide
[15] = pMOG 1156, Experiment 98-11, selection cyanamide 50 mg/litre, rooting medium 30 mg/litre cyanamide
[16] = pMOG 1156, Experiment 98-11, selection cyanamide 80 mg/litre, rooting medium 30 mg/litre cyanamide
[17] = pMOG 1156, Experiment 98-13, selection cyanamide 20 mg/litre, rooting medium same concentration as selection medium
[18] = pMOG 1156, Experiment 98-13, selection cyanamide 30 mg/litre, rooting medium same concentration as selection medium
[19] = pMOG 1156, Experiment 98-13, selection cyanamide 50 mg/litre, rooting medium same concentration as selection medium
[20] = pMOG 1156, Experiment 98-13, selection cyanamide 60 mg/litre, rooting medium same concentration as selection medium
[21] = pMOG 1156, Experiment 98-13, selection cyanamide 80 mg/litre, rooting medium same concentration as selection medium
[22] = pMOG1295, 30 mg/l cyanamide, 50 calli cultured

**Q.** NC[C@H]1O[C@H](O[C@H]2[C@H](O)[C@@H](O[C@H]3O[C@H](CO)[C@@H](O)[C@H](N)[C@H]3O)[C@H](N)C[C@@H]2N)[C@H](O)[C@@H](O)[C@@H]1O [Kanamycin] was tested. Which “Percentage of GUS expressing plants (% of plants staining blue)” value (“Percentage … (% of plants staining blue)” for short) ([1]; pMOG 410, treatment kanamycin 50 mg/litre, shoots rooted on Kanamycin 25 mg/litre) did it give?
**A.** Its value is 100^2%.

**Q.** What about the “% Shoots rooting” value [1, 4] of the same compound?
**A.** The value was 46.8%.

**Q.** What about the “Nr. of plants (shoots developed into plants and able to root)” value (shortened to “Nr. of plants”) [1, 4] of the same compound?
**A.** The value was 29.

**Q.** What about the “% Shoots rooting” value [1, 5] of the same compound?
**A.** Its value is 47.5%.

**Q.** And the “Nr. of plants” value [1, 5]?
**A.** Its value is 19.

**Q.** And the “% Shoots rooting” value [1, 6]?
**A.** The value was 20.6%.

**Q.** What about the “Nr. of plants” value [1, 6] of the same compound?
**A.** Its value is 14.

**Q.** What about the “Percentage … (% of plants staining blue)” value ([1]; pMOG 1156, treatment kanamycin 50 mg/litre, column headed C30 in rooting medium) of the same compound?
**A.** The value was 82-92%.

**Q.** And the “Percentage … (% of plants staining blue)” value [2]?
**A.** Its value is 100%.

**Q.** Which results are given for N#CN [Cyanamide]?
**A.** Speed of shoot regeneration compared with kanamycin ([1]; PMOG 1156, lower cyanamide concentrations): regeneration of shoots was faster than with kanamycin; Regeneration of root explants ([1]; explants transformed with pMOG 410 (without the cah gene), 20 mg/litre cyanamide): already enough to prevent regeneration; Viability of root explants ([1]; explants transformed with pMOG 410, 50 mg/litre cyanamide and higher): not viable and turned completely brown; Callus development of root explants ([1]; explants transformed with pMOG 410, 20 till 40 mg/litre cyanamide): some callus development was observed; Regeneration of root explants ([1]; explants transformed with the cah gene (PMOG 1156), all cyanamide concentrations, even 80 mg/litre): able to regenerate at all cyanamide concentrations; % Shoots rooting [1, 7]: 0%; Nr. of plants (shoots developed into plants and able to root) [1, 7]: 0; % Shoots rooting [1, 8]: 6.3%; Nr. of plants (shoots developed into plants and able to root) [1, 8]: 4; % Shoots rooting [1, 9]: 8.2%; Nr. of plants (shoots developed into plants and able to root) [1, 9]: 5; % Shoots rooting [1, 10]: 8.2%; Nr. of plants (shoots developed into plants and able to root) [1, 10]: 5; % Shoots rooting [1, 11]: 13.8%; Nr. of plants (shoots developed into plants and able to root) [1, 11]: 9; % Shoots rooting [1, 12]: 1.7%; Nr. of plants (shoots developed into plants and able to root) [1, 12]: 1; % Shoots rooting [1, 13]: 3.2%; Nr. of plants (shoots developed into plants and able to root) [1, 13]: 2; % Shoots rooting [1, 14]: 4.5%; Nr. of plants (shoots developed into plants and able to root) [1, 14]: 3; % Shoots rooting [1, 15]: 8.1%; Nr. of plants (shoots developed into plants and able to root) [1, 15]: 5; % Shoots rooting [1, 16]: 15.6%; Nr. of plants (shoots developed into plants and able to root) [1, 16]: 10; % Shoots rooting [1, 17]: 4.8%; Nr. of plants (shoots developed into plants and able to root) [1, 17]: 3; % Shoots rooting [1, 18]: 14.5%; Nr. of plants (shoots developed into plants and able to root) [1, 18]: 9; Nr. of plants (shoots developed into plants and able to root) ([1]; pMOG 1156, Experiment 98-13, selection cyanamide 40 mg/litre, rooting medium same concentration as selection medium): 1; % Shoots rooting [1, 19]: 0%; Nr. of plants (shoots developed into plants and able to root) [1, 19]: 0; % Shoots rooting [1, 20]: 6.O; Nr. of plants (shoots developed into plants and able to root) [1, 20]: 4; % Shoots rooting [1, 21]: 11.4%; Nr. of plants (shoots developed into plants and able to root) [1, 21]: 8; Percentage of GUS expressing plants (% of plants staining blue) ([1]; pMOG 1156, treatment cyanamide 20 mg/litre, C30 in rooting medium): 0^1%; Percentage of GUS expressing plants (% of plants staining blue) ([1]; pMOG 1156, treatment cyanamide 20 mg/litre, rooting medium same conc. as treatment): 0%; Percentage of GUS expressing plants (% of plants staining blue) ([1]; pMOG 1156, treatment cyanamide 30 mg/litre, C30 in rooting medium): 75-100%; Percentage of GUS expressing plants (% of plants staining blue) ([1]; pMOG 1156, treatment cyanamide 30 mg/litre, rooting medium same conc. as treatment): 78%; Percentage of GUS expressing plants (% of plants staining blue) ([1]; pMOG 1156, treatment cyanamide 40 mg/litre, C30 in rooting medium): 40-100%; Percentage of GUS expressing plants (% of plants staining blue) ([1]; pMOG 1156, treatment cyanamide 40 mg/litre, rooting medium same conc. as treatment): 100%; Percentage of GUS expressing plants (% of plants staining blue) ([1]; pMOG 1156, treatment cyanamide 50 mg/litre, C30 in rooting medium): 80%; Percentage of GUS expressing plants (% of plants staining blue) ([1]; pMOG 1156, treatment cyanamide 60 mg/litre, C30 in rooting medium): 80%; Percentage of GUS expressing plants (% of plants staining blue) ([1]; pMOG 1156, treatment cyanamide 60 mg/litre, rooting medium same conc. as treatment): 100%; Percentage of GUS expressing plants (% of plants staining blue) ([1]; pMOG 1156, treatment cyanamide 80 mg/litre, C30 in rooting medium): 67-90%; Percentage of GUS expressing plants (% of plants staining blue) ([1]; pMOG 1156, treatment cyanamide 80 mg/litre, rooting medium same conc. as treatment): 100%; Callus formation ([3]; cyanamide 100 mg/l or higher, pMOG1295 and pMOG1253 calli): No calli were formed; Calli able to regenerate ([3]; pMOG1253 (control)): 7 out of 16; Calli able to regenerate ([3]; pMOG1295 (cah-gene)): 17 out of 44; Calli able to be regenerated [3, 22]: 6; Calli showing green callus development [3, 22]: 11
